Laboratory results reported in ChEMBL document CHEMBL4359892, “Discovery of novel indolylarylsulfones as potent HIV-1 NNRTIs via structure-guided scaffold morphing” (Eur J Med Chem, 2019).

Columns and labels:
[1] = tested on: Human immunodeficiency virus 1; assay: Antiviral activity against HIV-1 3B infected in human MT4 cells assessed as reduction in virus-induced cytopathic effect incubated for 5 days by MTT assay; format: functional, organism-based; conditions: Human immunodeficiency virus 1, 3B, MT4, 120 h
[2] = tested on: Human immunodeficiency virus 1; assay: Antiviral activity against drug resistant HIV-1 RES056 harboring reverse transcriptase K103N/Y181C double mutant infected in human MT4 cells assessed as reduction in virus-induced cytopathic effect incubated for 5 days by MTT assay; format: functional, organism-based; conditions: Human immunodeficiency virus 1, RES056, MT4, 120 h
[3] = Cytotoxicity against human MT4 cells assessed as reduction in cell viability incubated for 5 days by MTT assay; format: cell-based
[4] = Selectivity index, ratio of CC50 for human MT4 cells to EC50 for antiviral activity against HIV IIIB; format: toxicity; conditions: read-out: Ratio CC50/EC50
[5] = Selectivity index, ratio of CC50 for human MT4 cells to EC50 for antiviral activity against HIV RES056; format: toxicity; conditions: read-out: Ratio CC50/EC50
[6] = tested on: Human immunodeficiency virus 1; assay: Antiviral activity against drug resistant HIV-1 harboring reverse transcriptase E138K mutant infected in human MT4 cells assessed as reduction in virus-induced cytopathic effect incubated for 5 days by MTT assay; format: functional, organism-based; conditions: Human immunodeficiency virus 1, MT4, 120 h
[7] = tested on: Human immunodeficiency virus 1; assay: Antiviral activity against drug resistant HIV-1 harboring reverse transcriptase L100I mutant infected in human MT4 cells assessed as reduction in virus-induced cytopathic effect incubated for 5 days by MTT assay; format: functional, organism-based; conditions: Human immunodeficiency virus 1, MT4, 120 h
[8] = tested on: Human immunodeficiency virus 1; assay: Antiviral activity against drug resistant HIV-1 harboring reverse transcriptase K103N mutant infected in human MT4 cells assessed as reduction in virus-induced cytopathic effect incubated for 5 days by MTT assay; format: functional, organism-based; conditions: Human immunodeficiency virus 1, MT4, 120 h
[9] = tested on: Human immunodeficiency virus 1; assay: Antiviral activity against drug resistant HIV-1 harboring reverse transcriptase Y181C mutant infected in human MT4 cells assessed as reduction in virus-induced cytopathic effect incubated for 5 days by MTT assay; format: functional, organism-based; conditions: Human immunodeficiency virus 1, MT4, 120 h
[10] = tested on: Human immunodeficiency virus 1; assay: Antiviral activity against drug resistant HIV-1 harboring reverse transcriptase Y188L mutant infected in human MT4 cells assessed as reduction in virus-induced cytopathic effect incubated for 5 days by MTT assay; format: functional, organism-based; conditions: Human immunodeficiency virus 1, MT4, 120 h
[11] = tested on: Human immunodeficiency virus 1; assay: Antiviral activity against drug resistant HIV-1 harboring reverse transcriptase F227L/V106A double mutant infected in human MT4 cells assessed as reduction in virus-induced cytopathic effect incubated for 5 days by MTT assay; format: functional, organism-based; conditions: Human immunodeficiency virus 1, MT4, 120 h

Compound: Cc1cc(C)cc(S(=O)(=O)c2c(C(=O)NC3CN(CC(N)=O)C3)[nH]c3ccc(Cl)cc23)c1
- EC50 [1]: 0.013 µM
- EC50 [2]: > 25.5 µM
- CC50 at 120 h [3]: 25.5 µM
- selectivity ratio [4]: 1940
- selectivity ratio [5]: < 1

Compound: Cc1cc(C)cc(S(=O)(=O)c2c(C(=O)NC3CN(Cc4ccccc4F)C3)[nH]c3ccc(Cl)cc23)c1
- EC50 [1]: 0.03 µM
- EC50 [2]: 65.1 µM
- CC50 at 120 h [3]: > 238 µM
- selectivity ratio [4]: > 7810
- selectivity ratio [5]: > 4

Compound: CCS(=O)(=O)NC(=O)c1[nH]c2ccc(Cl)cc2c1S(=O)(=O)c1cc(C)cc(C)c1
- EC50 [1]: 2.95 µM
- EC50 [2]: > 284 µM
- CC50 at 120 h [3]: > 284 µM
- selectivity ratio [4]: > 96
- EC50 [6]: 0.59 µM
- EC50 [7]: 4.4 µM
- EC50 [8]: 10.2 µM
- EC50 [9]: 12.9 µM
- EC50 [10]: > 284 µM
- EC50 [11]: 11.3 µM

Compound: Cc1cc(C)cc(S(=O)(=O)c2c(C(=O)NCCP(=O)(O)O)[nH]c3ccc(Cl)cc23)c1
- EC50 [1]: 0.21 µM
- EC50 [2]: > 237 µM
- CC50 at 120 h [3]: > 237 µM
- selectivity ratio [4]: > 1100

Compound: Cc1cc(C)cc(S(=O)(=O)c2c(C(=O)NC3CN(S(C)(=O)=O)C3)[nH]c3ccc(Cl)cc23)c1
- EC50 [1]: 0.017 µM
- EC50 [2]: > 252 µM
- CC50 at 120 h [3]: > 252 µM
- selectivity ratio [4]: > 15200

Compound: Cc1cc(C)cc(S(=O)(=O)c2c(C(=O)NC3CNC3)[nH]c3ccc(Cl)cc23)c1
- EC50 [1]: 0.074 µM
- EC50 [2]: ≥ 37.3 µM
- CC50 at 120 h [3]: 37.3 µM
- selectivity ratio [4]: 495
- selectivity ratio [5]: < 1

Compound: Cc1cc(C)cc(S(=O)(=O)c2c(C(=O)N[C@@H]3CCN(Cc4ccccc4F)C3)[nH]c3ccc(Cl)cc23)c1
- EC50 [1]: 0.12 µM
- EC50 [2]: > 232 µM
- CC50 at 120 h [3]: > 232 µM
- selectivity ratio [4]: > 1860

Compound: Cc1cc(C)cc(S(=O)(=O)c2c(C(=O)NC3CN(Cc4cccnc4)C3)[nH]c3ccc(Cl)cc23)c1
- EC50 [1]: 0.015 µM
- EC50 [2]: > 36 µM
- CC50 at 120 h [3]: 36 µM
- selectivity ratio [4]: 2480
- selectivity ratio [5]: < 1

Compound: Cc1cc(C)cc(S(=O)(=O)c2c(C(=O)N[C@H]3CCN(Cc4n[nH]c(=O)n4C)C3)[nH]c3ccc(Cl)cc23)c1
- EC50 [1]: 0.0072 µM
- EC50 [2]: ≥ 21.4 µM
- CC50 at 120 h [3]: 21.4 µM
- selectivity ratio [4]: 2980
- selectivity ratio [5]: < 1

Compound: Cc1cc(C)cc(S(=O)(=O)c2c(C(=O)NS(=O)(=O)C3CC3)[nH]c3ccc(Cl)cc23)c1
- EC50 [1]: 2.6 µM
- EC50 [2]: > 147 µM
- CC50 at 120 h [3]: 147 µM
- selectivity ratio [4]: 57
- selectivity ratio [5]: < 1
- EC50 [6]: 0.33 µM
- EC50 [7]: 8.17 µM
- EC50 [8]: 12.1 µM
- EC50 [9]: 18.6 µM
- EC50 [10]: > 147 µM
- EC50 [11]: 11.8 µM

Compound: Cc1cc(C)cc(S(=O)(=O)c2c(C(=O)N[C@H]3CCN(Cc4ccccc4C#N)C3)[nH]c3ccc(Cl)cc23)c1
- EC50 [1]: 0.17 µM
- EC50 [2]: 174 µM
- CC50 at 120 h [3]: > 229 µM
- selectivity ratio [4]: > 1350
- selectivity ratio [5]: > 1

Compound: Cc1cc(C)cc(S(=O)(=O)c2c(C(=O)NC3CN(Cc4ccccc4C#N)C3)[nH]c3ccc(Cl)cc23)c1
- EC50 [1]: 0.013 µM
- EC50 [2]: 66.8 µM
- CC50 at 120 h [3]: > 235 µM
- selectivity ratio [4]: > 18700
- selectivity ratio [5]: > 4

Compound: Cc1cc(C)cc(S(=O)(=O)c2c(C(=O)N[C@@H]3CCN(Cc4cccnc4)C3)[nH]c3ccc(Cl)cc23)c1
- EC50 [1]: 0.057 µM
- EC50 [2]: ≥ 36.5 µM
- CC50 at 120 h [3]: 36.5 µM
- selectivity ratio [4]: 627
- selectivity ratio [5]: < 1

Compound: Cc1cc(C)cc(S(=O)(=O)c2c(C(=O)N[C@H]3CCN(Cc4cccnc4)C3)[nH]c3ccc(Cl)cc23)c1
- EC50 [1]: 0.011 µM
- EC50 [2]: ≥ 22.8 µM
- CC50 at 120 h [3]: 22.8 µM
- selectivity ratio [4]: 2010
- selectivity ratio [5]: < 1

Compound: CCCS(=O)(=O)NC(=O)c1[nH]c2ccc(Cl)cc2c1S(=O)(=O)c1cc(C)cc(C)c1
- EC50 [1]: 2.4 µM
- EC50 [2]: > 146 µM
- CC50 at 120 h [3]: 146 µM
- selectivity ratio [4]: 61
- selectivity ratio [5]: < 1
- EC50 [6]: 0.43 µM
- EC50 [7]: 10.9 µM
- EC50 [8]: 17.3 µM
- EC50 [9]: 29.6 µM
- EC50 [10]: > 146 µM
- EC50 [11]: 20.6 µM

Compound: Cc1cc(C)cc(S(=O)(=O)c2c(C(=O)N[C@@H]3CCNC3)[nH]c3ccc(Cl)cc23)c1
- EC50 [1]: 0.049 µM
- EC50 [2]: ≥ 9.72 µM
- CC50 at 120 h [3]: 37.3 µM
- selectivity ratio [5]: < 1

Compound: Cc1cc(C)cc(S(=O)(=O)c2c(C(=O)NS(C)(=O)=O)[nH]c3ccc(Cl)cc23)c1
- EC50 [1]: 0.0096 µM
- EC50 [2]: ≥ 9.44 µM
- CC50 at 120 h [3]: 40.1 µM
- selectivity ratio [4]: 4180
- selectivity ratio [5]: ≤ 4

Compound: Cc1cc(C)cc(S(=O)(=O)c2c(C(=O)N[C@H]3CCN(Cc4ccccc4F)C3)[nH]c3ccc(Cl)cc23)c1
- EC50 [1]: 0.083 µM
- EC50 [2]: ≥ 215 µM
- CC50 at 120 h [3]: 215 µM
- selectivity ratio [4]: 2580
- selectivity ratio [5]: < 1

Compound: Cc1cc(C)cc(S(=O)(=O)c2c(C(=O)NC3CN(Cc4n[nH]c(=O)n4C)C3)[nH]c3ccc(Cl)cc23)c1
- EC50 [1]: 0.11 µM
- EC50 [2]: > 25.2 µM
- CC50 at 120 h [3]: 25.2 µM
- selectivity ratio [4]: 224
- selectivity ratio [5]: > 224
- EC50 [6]: 0.28 µM
- EC50 [7]: 0.104 µM
- EC50 [8]: 0.51 µM
- EC50 [9]: 1.69 µM
- EC50 [10]: 2.16 µM
- EC50 [11]: 1.17 µM

Compound: Cc1cc(C)cc(S(=O)(=O)c2c(C(=O)NCCn3ccc(=O)[nH]c3=O)[nH]c3ccc(Cl)cc23)c1
- EC50 [1]: 4.42 µM
- EC50 [2]: > 265 µM
- CC50 at 120 h [3]: > 265 µM
- selectivity ratio [4]: > 60

Compound: Cc1cc(C)cc(S(=O)(=O)c2c(C(=O)N[C@@H]3CCN(Cc4ccccc4C#N)C3)[nH]c3ccc(Cl)cc23)c1
- EC50 [1]: 0.053 µM
- EC50 [2]: > 186 µM
- CC50 at 120 h [3]: ≥ 186 µM
- selectivity ratio [4]: 2580

Compound: Cc1cc(C)cc(S(=O)(=O)c2c(C(=O)N[C@H]3CCNC3)[nH]c3ccc(Cl)cc23)c1
- EC50 [1]: 0.021 µM
- EC50 [2]: ≥ 10 µM
- CC50 at 120 h [3]: 10 µM
- selectivity ratio [4]: 473
- selectivity ratio [5]: < 1

Compound: Cc1cc(C)cc(S(=O)(=O)c2c(C(=O)N[C@@H]3CCN(Cc4n[nH]c(=O)n4C)C3)[nH]c3ccc(Cl)cc23)c1
- EC50 [1]: 0.035 µM
- EC50 [2]: ≥ 22.4 µM
- CC50 at 120 h [3]: 22.4 µM
- selectivity ratio [4]: 634
- selectivity ratio [5]: < 1

Compound: O=C1Nc2ccc(Cl)cc2[C@@](C#CC2CC2)(C(F)(F)F)O1 [EFAVIRENZ]
- EC50 [1]: 0.0086 µM
- EC50 [2]: 0.26 µM
- CC50 at 120 h [3]: > 6.35 µM
- EC50 [9]: 0.0083 µM
- EC50 [10]: 0.27 µM
- EC50 [11]: 0.25 µM

Compound: Nc1ccn([C@@H]2CS[C@H](CO)O2)c(=O)n1 [LAMIVUDINE]
- EC50 [1]: 3.88 µM
- EC50 [2]: 5.54 µM
- CC50 at 120 h [3]: > 87.2 µM
- selectivity ratio [5]: > 16
- EC50 [6]: 3.58 µM
- EC50 [7]: 3.14 µM
- EC50 [8]: 3.7 µM
- EC50 [9]: 4.54 µM
- EC50 [10]: 4.45 µM
- EC50 [11]: 1.92 µM

Compound: Cc1ccnc2c1NC(=O)c1cccnc1N2C1CC1 [NEVIRAPINE]
- EC50 [1]: 0.38 µM
- EC50 [2]: > 15 µM
- CC50 at 120 h [3]: > 15 µM
- EC50 [6]: 0.18 µM
- EC50 [7]: 1.24 µM
- EC50 [8]: 7.18 µM
- EC50 [9]: > 15 µM
- EC50 [10]: > 15 µM
- EC50 [11]: > 15 µM
